Reference: ChEMBL document CHEMBL1201862, “PubChem BioAssay data set” (2004)
Calls of active or inactive are those of the source.

Legend:
[1] = cytotoxicity in MIN6 insulinoma cells, dose response, cytotoxicity control, cell-based, mouse insulinoma (AID 2122); format: functional;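 also: confirmatory high-throughput counterscreen run to flag cytotoxic compounds; mouse MIN-6 beta cells carrying an insulin promoter eGFP reporter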
[2] = HepG2 cell cytotoxicity, dose response, cytotoxicity control, plate reader, cherry-pick, antagonist series (AID 743416); format: functional, cell-based
[3] = tested on: INS1; test: beta cell apoptosis inhibitors, cytokine rescue, dose response, luminescence, retest (AID 449756); format: functional, cell-based; details: Rattus norvegicus;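 also: cell death triggered by IL-1 beta plus TNF-alpha plus IFN-gamma mixture; protective hits raise ATP signal compared with cytokine alone wells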
[4] = MC4R antagonists, dose response, counter-screen for LGR2 antagonist project, cell-based, plate reader, cherry pick (AID 743444); format: functional;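 also: transfected HEK 293 cells stimulated with alpha-MSH peptide; potency of inhibitors of the alpha-MSH evoked signal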
[5] = target: T1, SUMO-activating enzyme (Homo sapiens, UniProt Q9UBT2); test: inhibitors of in vitro SUMOylation cascade, primary screen, biochemical, HTRF, uHTS (AID 2006); format: protein-complex assay
T1 sequence (Q9UBE0 whole entry): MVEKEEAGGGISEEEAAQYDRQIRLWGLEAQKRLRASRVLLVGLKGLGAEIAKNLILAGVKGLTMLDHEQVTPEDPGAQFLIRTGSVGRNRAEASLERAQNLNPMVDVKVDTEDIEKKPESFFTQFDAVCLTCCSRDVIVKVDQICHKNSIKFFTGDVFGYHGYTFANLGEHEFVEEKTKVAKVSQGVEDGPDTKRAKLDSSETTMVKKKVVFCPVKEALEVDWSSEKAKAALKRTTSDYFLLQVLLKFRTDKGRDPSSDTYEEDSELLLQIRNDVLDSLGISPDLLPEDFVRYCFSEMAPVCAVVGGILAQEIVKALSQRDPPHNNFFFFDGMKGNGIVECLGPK
T1 sequence (Q9UBT2 whole entry): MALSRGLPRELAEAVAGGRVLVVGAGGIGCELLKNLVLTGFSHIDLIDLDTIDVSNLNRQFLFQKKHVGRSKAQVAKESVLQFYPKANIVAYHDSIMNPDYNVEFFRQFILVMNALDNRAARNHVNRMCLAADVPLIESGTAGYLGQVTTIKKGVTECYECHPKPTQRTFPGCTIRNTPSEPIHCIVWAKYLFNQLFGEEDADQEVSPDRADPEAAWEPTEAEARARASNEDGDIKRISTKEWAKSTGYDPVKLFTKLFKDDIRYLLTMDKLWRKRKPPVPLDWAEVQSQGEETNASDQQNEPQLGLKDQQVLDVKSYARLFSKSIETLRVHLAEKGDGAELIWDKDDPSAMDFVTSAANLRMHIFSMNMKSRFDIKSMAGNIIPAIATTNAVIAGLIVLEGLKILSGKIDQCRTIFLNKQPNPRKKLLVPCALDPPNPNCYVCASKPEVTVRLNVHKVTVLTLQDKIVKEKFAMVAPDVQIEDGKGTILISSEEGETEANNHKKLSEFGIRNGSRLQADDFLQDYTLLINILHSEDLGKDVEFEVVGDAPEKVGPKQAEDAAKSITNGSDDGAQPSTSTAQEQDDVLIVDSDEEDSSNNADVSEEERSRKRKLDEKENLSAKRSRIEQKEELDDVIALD

[6] = target: T2, Replicative DNA helicase DnaB (Mycobacterium tuberculosis, UniProt P9WMR3); test: DnaB intein splicing inhibitors, dose response, biochemical, cell-free fluorescence (AID 449749); format: functional
T2 sequence (P9WMR3 whole entry): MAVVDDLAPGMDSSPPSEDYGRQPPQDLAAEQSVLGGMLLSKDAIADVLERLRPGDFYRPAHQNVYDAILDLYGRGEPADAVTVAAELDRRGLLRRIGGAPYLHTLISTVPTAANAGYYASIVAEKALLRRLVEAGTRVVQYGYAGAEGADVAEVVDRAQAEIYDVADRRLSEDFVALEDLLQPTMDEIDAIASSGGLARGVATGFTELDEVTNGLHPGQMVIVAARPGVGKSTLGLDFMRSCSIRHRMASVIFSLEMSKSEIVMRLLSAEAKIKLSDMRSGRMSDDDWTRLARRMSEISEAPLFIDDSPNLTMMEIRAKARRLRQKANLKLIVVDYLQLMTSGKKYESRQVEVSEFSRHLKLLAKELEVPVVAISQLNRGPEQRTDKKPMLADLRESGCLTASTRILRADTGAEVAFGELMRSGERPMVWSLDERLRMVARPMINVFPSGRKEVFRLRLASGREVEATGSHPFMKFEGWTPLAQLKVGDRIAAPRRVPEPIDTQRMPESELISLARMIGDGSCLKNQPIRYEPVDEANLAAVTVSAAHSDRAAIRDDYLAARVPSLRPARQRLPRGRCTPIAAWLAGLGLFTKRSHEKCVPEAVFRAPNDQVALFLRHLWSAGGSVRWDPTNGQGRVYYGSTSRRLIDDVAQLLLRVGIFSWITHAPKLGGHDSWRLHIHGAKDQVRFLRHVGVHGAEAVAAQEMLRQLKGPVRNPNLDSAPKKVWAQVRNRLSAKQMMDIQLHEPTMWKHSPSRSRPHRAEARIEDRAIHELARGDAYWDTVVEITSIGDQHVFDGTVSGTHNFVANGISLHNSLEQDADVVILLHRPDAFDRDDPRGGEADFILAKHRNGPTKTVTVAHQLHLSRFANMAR

[7] = target: T3, Protein RecA (Mycobacterium tuberculosis, UniProt P9WHJ3); test: Fluorescence Cell-Free Homogeneous Dose Retest to Identify Inhibitors of RecA-Intein Splicing Activity. [Related pubchem assays (depositor defined):AID2097, AID2223, AID489010, AID492950]; format: functional
T3 sequence (P9WHJ3 whole entry): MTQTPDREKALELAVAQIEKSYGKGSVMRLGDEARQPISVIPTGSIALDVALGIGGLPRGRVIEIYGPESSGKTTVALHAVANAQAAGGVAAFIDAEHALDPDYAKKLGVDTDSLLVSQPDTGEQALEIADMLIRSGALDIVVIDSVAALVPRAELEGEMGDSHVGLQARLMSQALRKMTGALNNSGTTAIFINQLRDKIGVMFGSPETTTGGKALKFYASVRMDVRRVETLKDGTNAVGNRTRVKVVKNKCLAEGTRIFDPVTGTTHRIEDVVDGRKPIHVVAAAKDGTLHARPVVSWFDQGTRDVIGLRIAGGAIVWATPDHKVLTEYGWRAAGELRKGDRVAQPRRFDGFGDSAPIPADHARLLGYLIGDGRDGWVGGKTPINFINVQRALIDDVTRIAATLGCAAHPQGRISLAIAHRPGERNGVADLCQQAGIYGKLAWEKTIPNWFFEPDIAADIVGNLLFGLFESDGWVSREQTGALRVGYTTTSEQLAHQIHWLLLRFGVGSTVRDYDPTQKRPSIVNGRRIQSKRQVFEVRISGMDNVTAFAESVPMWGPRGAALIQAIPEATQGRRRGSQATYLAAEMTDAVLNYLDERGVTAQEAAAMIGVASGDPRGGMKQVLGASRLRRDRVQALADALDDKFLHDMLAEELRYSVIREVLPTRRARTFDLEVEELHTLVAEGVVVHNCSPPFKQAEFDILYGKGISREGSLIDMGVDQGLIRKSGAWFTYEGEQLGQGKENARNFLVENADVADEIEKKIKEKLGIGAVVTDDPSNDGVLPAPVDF

[8] = target: T1, SUMO-activating enzyme; test: SUMOylation inhibitor hit validation, confirmation, SUMOylation inhibitor project, biochemical, AlphaScreen (AID 2018); format: functional
[9] = target: T4, High affinity choline transporter 1 (Homo sapiens, UniProt Q9GZV3); test: CHT inhibitors, dose response, cell-based, 5-point CRC, membrane potential dye (AID 504840); format: functional
T4 sequence (Q9GZV3 whole entry): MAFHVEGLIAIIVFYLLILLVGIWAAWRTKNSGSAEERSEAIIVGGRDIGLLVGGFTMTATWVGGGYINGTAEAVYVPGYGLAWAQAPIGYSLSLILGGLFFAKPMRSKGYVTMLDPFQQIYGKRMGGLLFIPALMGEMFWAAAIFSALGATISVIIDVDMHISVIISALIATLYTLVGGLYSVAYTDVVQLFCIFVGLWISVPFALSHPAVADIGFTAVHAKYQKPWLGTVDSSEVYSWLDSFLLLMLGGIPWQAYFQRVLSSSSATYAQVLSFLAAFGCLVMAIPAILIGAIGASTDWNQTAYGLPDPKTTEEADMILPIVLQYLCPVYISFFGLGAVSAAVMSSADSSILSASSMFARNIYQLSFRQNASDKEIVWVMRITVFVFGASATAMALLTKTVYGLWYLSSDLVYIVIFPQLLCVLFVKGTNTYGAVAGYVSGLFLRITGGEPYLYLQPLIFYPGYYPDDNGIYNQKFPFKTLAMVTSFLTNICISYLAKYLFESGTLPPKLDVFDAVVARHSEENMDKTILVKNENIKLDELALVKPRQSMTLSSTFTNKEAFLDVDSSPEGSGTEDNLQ

[10] = cytotoxicity in HEK-293T cells, dose response, cytotoxicity control for BCR NF-kB inhibitor project, luminescence, B-cell screen hits (AID 489021); format: functional, cell-based;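 also: HEK-293T cells carrying an NF-kB luciferase reporter; cells exposed to compound for about 14 hours before viability readout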
[11] = target: Heat shock protein HSP 90-alpha (Homo sapiens, UniProt P07900); format: functional, organism-based
[12] = insulin promoter down-regulators in MIN6 cells, imaging, high-content screening, mouse beta cells (AID 1628); format: functional
[13] = HEK293 cell cytotoxicity, dose response, cytotoxicity control, plate reader, cherry-picked samples (AID 743446); format: functional, cell-based
[14] = A549 cell cytotoxicity, dose response, cytotoxicity control, plate reader, cherry-pick, antagonist series (AID 743412); format: functional, cell-based
[15] = LGR2 antagonists, dose response, cell-based, HEK293, CRE-luciferase reporter, cherry pick, set 2 (AID 743343); format: functional;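 also: transfected cells were stimulated with diluted bursicon conditioned medium after compound addition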

O=C(Nc1nc(-c2ccccc2)cs1)c1ccccc1NS(=O)(=O)c1ccc(F)cc1
active: IC50 [1] 2.18 µM | AC50 [2] 11.2 µM | AC50 [3] 3.41 µM | AC50 [4] 6.01 µM | IC50 [5] 18.4 µM | AC50 [6] 2.17 µM | EC50 [7] 8.85 µM | IC50 [8] 7.97 µM | IC50 [9] 13.8 µM | IC50 [10] 14.8 µM | AC50 [11] 2.91 µM | IC50 [12] 3.02 µM | AC50 [13] 3.39 µM | AC50 [14] 14.6 µM | AC50 [15] 28.6 µM
